# Source: US11820766B2, “Monoacylglycerol lipase modulators” (Janssen Pharmaceutica NV, priority 2018, dated 2023)
# Biological target: T1, human MGL from HeLa cells (Homo sapiens, UniProt Q99685)
# T1 construct: combining endogenously expressed MGL from HeLa cells with test compounds; endogenous in cells; host or cells: HeLa cells / cell homogenates
# T1 sequence (Q99685 1-303): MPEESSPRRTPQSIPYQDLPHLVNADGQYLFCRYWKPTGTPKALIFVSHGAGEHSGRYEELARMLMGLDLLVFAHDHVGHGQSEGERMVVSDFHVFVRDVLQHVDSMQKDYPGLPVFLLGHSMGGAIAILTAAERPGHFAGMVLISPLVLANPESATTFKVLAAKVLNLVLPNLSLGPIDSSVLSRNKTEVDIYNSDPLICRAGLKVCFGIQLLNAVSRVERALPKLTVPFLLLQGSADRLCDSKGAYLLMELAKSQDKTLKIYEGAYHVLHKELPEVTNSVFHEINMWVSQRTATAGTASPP
# Assay: In vitro MGL activity assay: [glycerol-1,3-3H]-oleyl glycerol cleavage by MGL from HeLa cells
# Type: biochemical
# Settings: 300 nM [Glycerol-1,3-3H]-oleyl glycerol, one hour incubation
# Excerpt: MGL is the predominant hydrolase in HeLa cells/cell homogenates.
row,IC50 [nM],SMILES
1,132,"CNC(=O)c1cccc(C(=O)N2CCc3c(nn(C)c3-c3cc(F)c(F)c(F)c3)[C@@H]2C)c1 [Example 266, 3-[(7S)-2,7-Dimethyl-3-(3,4,5-trifluorophenyl)-5,7-dihydro-4H-pyrazolo[3,4-c]pyridine-6-carbonyl]-N-methyl-benzamide]"
2,576,"C[C@H]1c2nn(C)c(-c3cc(F)c(F)c(F)c3)c2CCN1C(=O)c1ccc(-n2ccnc2)cc1 [Example 267, [(7S)-2,7-Dimethyl-3-(3,4,5-trifluorophenyl)-5,7-dihydro-4H-pyrazolo[3,4-c]pyridin-6-yl]-(4-imidazol-1-ylphenyl)methanone]"
3,24.2,"C[C@H]1c2nn(C)c(-c3cc(F)c(F)c(F)c3)c2CCN1C(=O)c1ccc(-c2cn[nH]c2)cc1 [Example 268, [(7S)-2,7-Dimethyl-3-(3,4,5-trifluorophenyl)-5,7-dihydro-4H-pyrazolo[3,4-c]pyridin-6-yl]-[4-(1H-pyrazol-4-yl)phenyl]methanone]"
4,8.92,"C[C@H]1c2nn(C)c(-c3cc(F)c(F)c(F)c3)c2CCN1C(=O)c1ccc(-c2ccn[nH]2)cc1 [Example 269, [(7S)-2,7-Dimethyl-3-(3,4,5-trifluorophenyl)-5,7-dihydro-4H-pyrazolo[3,4-c]pyridin-6-yl]-[4-(1H-pyrazol-5-yl)phenyl]methanone]"
5,9.07,"C[C@H]1c2nn(C)c(-c3cc(F)c(F)c(F)c3)c2CCN1C(=O)c1cccc(-c2cc[nH]n2)c1 [Example 270, [(7S)-2,7-Dimethyl-3-(3,4,5-trifluorophenyl)-5,7-dihydro-4H-pyrazolo[3,4-c]pyridin-6-yl]-[3-(1H-pyrazol-3-yl)phenyl]methanone]"
6,182,"COc1ccc(C(=O)N2CCc3c(nn(C)c3-c3cc(F)c(F)c(F)c3)[C@@H]2C)cc1-c1ccn(C)n1 [Example 271, [(7S)-2,7-Dimethyl-3-(3,4,5-trifluorophenyl)-5,7-dihydro-4H-pyrazolo[3,4-c]pyridin-6-yl]-[4-methoxy-3-(1-methylpyrazol-3-yl)phenyl]methanone]"
7,14.6,"C[C@H]1c2nn(C)c(-c3cc(F)c(F)c(F)c3)c2CCN1C(=O)c1cccc(-c2cn[nH]c2)c1 [Example 272, [(7S)-2,7-Dimethyl-3-(3,4,5-trifluorophenyl)-5,7-dihydro-4H-pyrazolo[3,4-c]pyridin-6-yl]-[3-(1H-pyrazol-4-yl)phenyl]methanone]"
8,93.1,"C[C@H]1c2nn(C)c(-c3cc(F)c(F)c(F)c3)c2CCN1C(=O)c1cccc(-c2cnn(C)c2)c1 [Example 273, [(7S)-2,7-Dimethyl-3-(3,4,5-trifluorophenyl)-5,7-dihydro-4H-pyrazolo[3,4-c]pyridin-6-yl]-[3-(1-methylpyrazol-4-yl)phenyl]methanone]"
9,13.7,"C[C@H]1c2nn(C)c(-c3cc(F)c(F)c(F)c3)c2CCN1C(=O)c1cc(-c2cnn(C)c2)ccc1F [Example 274, [(7S)-2,7-Dimethyl-3-(3,4,5-trifluorophenyl)-5,7-dihydro-4H-pyrazolo[3,4-c]pyridin-6-yl]-[2-fluoro-5-(1-methylpyrazol-4-yl)phenyl]methanone]"
10,67.3,"C[C@H]1c2nn(C)c(-c3cc(F)c(F)c(F)c3)c2CCN1C(=O)c1cccc(-n2cc(F)cn2)c1 [Example 275, [(7S)-2,7-Dimethyl-3-(3,4,5-trifluorophenyl)-5,7-dihydro-4H-pyrazolo[3,4-c]pyridin-6-yl]-[3-(4-fluoropyrazol-1-yl)phenyl]methanone]"
11,145,"Cc1ncn(-c2cccc(C(=O)N3CCc4c(nn(C)c4-c4cc(F)c(F)c(F)c4)[C@@H]3C)c2)n1 [Example 276, [(7S)-2,7-Dimethyl-3-(3,4,5-trifluorophenyl)-5,7-dihydro-4H-pyrazolo[3,4-c]pyridin-6-yl]-[3-(3-methyl-1,2,4-triazol-1-yl)phenyl]methanone]"
12,22,"C[C@H]1c2nn(C)c(-c3cc(F)c(F)c(F)c3)c2CCN1C(=O)c1cc(F)cc(-n2cncn2)c1 [Example 277, [(7S)-2,7-Dimethyl-3-(3,4,5-trifluorophenyl)-5,7-dihydro-4H-pyrazolo[3,4-c]pyridin-6-yl]-[3-fluoro-5-(1,2,4-triazol-1-yl)phenyl]methanone]"
13,3.24,"COc1cc(C(=O)N2CCc3c(nn(C)c3-c3cc(F)c(F)c(F)c3)[C@@H]2C)cc(-n2cncn2)c1 [Example 278, [(7S)-2,7-Dimethyl-3-(3,4,5-trifluorophenyl)-5,7-dihydro-4H-pyrazolo[3,4-c]pyridin-6-yl]-[3-methoxy-5-(1,2,4-triazol-1-yl)phenyl]methanone]"
14,7.34,"C[C@H]1c2nn(C)c(-c3cc(F)c(F)c(F)c3)c2CCN1C(=O)c1ccccc1-n1cncn1 [Example 279, [(7S)-2,7-Dimethyl-3-(3,4,5-trifluorophenyl)-5,7-dihydro-4H-pyrazolo[3,4-c]pyridin-6-yl]-[2-(1,2,4-triazol-1-yl)phenyl]methanone]"
15,7.77,"C[C@H]1c2nn(C)c(-c3cc(F)c(F)c(F)c3)c2CCN1C(=O)c1c(F)cccc1-n1cncn1 [Example 280, [(7S)-2,7-Dimethyl-3-(3,4,5-trifluorophenyl)-5,7-dihydro-4H-pyrazolo[3,4-c]pyridin-6-yl]-[2-fluoro-6-(1,2,4-triazol-1-yl)phenyl]methanone]"
16,9.01,"C[C@H]1c2nn(C)c(-c3cc(F)c(F)c(F)c3)c2CCN1C(=O)c1cc(F)ccc1-n1cncn1 [Example 281, [(7S)-2,7-Dimethyl-3-(3,4,5-trifluorophenyl)-5,7-dihydro-4H-pyrazolo[3,4-c]pyridin-6-yl]-[5-fluoro-2-(1,2,4-triazol-1-yl)phenyl]methanone]"
17,1870,"C[C@H]1c2nn(C)c(-c3cc(F)c(F)c(F)c3)c2CCN1C(=O)c1ccccc1-n1cnc(C(F)(F)F)n1 [Example 282, [(7S)-2,7-Dimethyl-3-(3,4,5-trifluorophenyl)-5,7-dihydro-4H-pyrazolo[3,4-c]pyridin-6-yl]-[2-[3-(trifluoromethyl)-1,2,4-triazol-1-yl]phenyl]methanone]"
18,19.1,"C[C@H]1c2nn(C)c(-c3cc(F)c(F)c(F)c3)c2CCN1C(=O)c1cccc(-n2nccn2)c1 [Example 283, [(7S)-2,7-Dimethyl-3-(3,4,5-trifluorophenyl)-5,7-dihydro-4H-pyrazolo[3,4-c]pyridin-6-yl]-[3-(triazol-2-yl)phenyl]methanone]"
19,15.6,"C[C@H]1c2nn(C)c(-c3cc(F)c(F)c(F)c3)c2CCN1C(=O)c1cc(F)cc(-n2nccn2)c1 [Example 284, [(7S)-2,7-Dimethyl-3-(3,4,5-trifluorophenyl)-5,7-dihydro-4H-pyrazolo[3,4-c]pyridin-6-yl]-[3-fluoro-5-(triazol-2-yl)phenyl]methanone]"
20,18.6,"C[C@H]1c2nn(C)c(-c3cc(F)c(F)c(F)c3)c2CCN1C(=O)c1cc(-n2nccn2)ccc1F [Example 285, [(7S)-2,7-Dimethyl-3-(3,4,5-trifluorophenyl)-5,7-dihydro-4H-pyrazolo[3,4-c]pyridin-6-yl]-[2-fluoro-5-(triazol-2-yl)phenyl]methanone]"
21,2.27,"Cc1cc(C(=O)N2CCc3c(nn(C)c3-c3cc(F)c(F)c(F)c3)[C@@H]2C)cc(-n2nccn2)c1 [Example 286, [(7S)-2,7-Dimethyl-3-(3,4,5-trifluorophenyl)-5,7-dihydro-4H-pyrazolo[3,4-c]pyridin-6-yl]-[3-methyl-5-(triazol-2-yl)phenyl]methanone]"
22,60.4,"C[C@H]1c2nn(C)c(-c3cc(F)c(F)c(F)c3)c2CCN1C(=O)c1cc(-n2nccn2)cc(C(F)(F)F)c1 [Example 287, [(7S)-2,7-Dimethyl-3-(3,4,5-trifluorophenyl)-5,7-dihydro-4H-pyrazolo[3,4-c]pyridin-6-yl]-[3-(triazol-2-yl)-5-(trifluoromethyl)phenyl]methanone]"
23,59.8,"C[C@H]1c2nn(C)c(-c3cc(F)c(F)c(F)c3)c2CCN1C(=O)c1c(F)cccc1-n1nccn1 [Example 288, [(7S)-2,7-Dimethyl-3-(3,4,5-trifluorophenyl)-5,7-dihydro-4H-pyrazolo[3,4-c]pyridin-6-yl]-[2-fluoro-6-(triazol-2-yl)phenyl]methanone]"
24,19.8,"COc1ccc(-n2nccn2)c(C(=O)N2CCc3c(nn(C)c3-c3cc(F)c(F)c(F)c3)[C@@H]2C)c1 [Example 289, [(7S)-2,7-Dimethyl-3-(3,4,5-trifluorophenyl)-5,7-dihydro-4H-pyrazolo[3,4-c]pyridin-6-yl]-[5-methoxy-2-(triazol-2-yl)phenyl]methanone]"
25,71.8,"C[C@H]1c2nn(C)c(-c3cc(F)c(F)c(F)c3)c2CCN1C(=O)c1cccc(-n2cnnc2)c1 [Example 290, [(7S)-2,7-Dimethyl-3-(3,4,5-trifluorophenyl)-5,7-dihydro-4H-pyrazolo[3,4-c]pyridin-6-yl]-[3-(1,2,4-triazol-4-yl)phenyl]methanone]"
26,1400,"C[C@H]1c2nn(C)c(-c3cc(F)c(F)c(F)c3)c2CCN1C(=O)c1ccc(F)c(-n2cnnc2)c1 [Example 291, [(7S)-2,7-Dimethyl-3-(3,4,5-trifluorophenyl)-5,7-dihydro-4H-pyrazolo[3,4-c]pyridin-6-yl]-[4-fluoro-3-(1,2,4-triazol-4-yl)phenyl]methanone]"
27,245,"C[C@H]1c2nn(C)c(-c3cc(F)c(F)c(F)c3)c2CCN1C(=O)c1cc(F)cc(-n2cnnc2)c1 [Example 292, [(7S)-2,7-Dimethyl-3-(3,4,5-trifluorophenyl)-5,7-dihydro-4H-pyrazolo[3,4-c]pyridin-6-yl]-[3-fluoro-5-(1,2,4-triazol-4-yl)phenyl]methanone]"
